Laboratory results from the supplement of paper PMC13380429.

How the values were obtained:
Conditions in all cases: 72 h
U2OS [1] = assay: cell viability relative to DMSO; higher = less toxic
HepG2 [2] = assay: as above
Caco-2 [3] = assay: as above
Vero E6 [4] = assay: as above
Calu-3 [5] = assay: as above
U2OS [6] = assay: relative viability EC50 (midpoint between 100% and the lowest measured viability); higher = less toxic
HepG2 [7] = assay: as above
Caco-2 [8] = assay: as above
Vero E6 [9] = assay: as above
Calu-3 [10] = assay: as above
U2OS [11] = assay: drug sensitivity score (DSS) for viability; higher = more toxic; extreme values may be limits of the assay
HepG2 [12] = assay: as above
Caco-2 [13] = assay: as above
Vero E6 [14] = assay: as above
Calu-3 [15] = assay: as above

SMILES | cell viability (U2OS [1]; 1 nM) [%] | cell viability (U2OS [1]; 10 nM) [%] | cell viability (U2OS [1]; 100 nM) [%] | cell viability (U2OS [1]; 1000 nM) [%] | cell viability (U2OS [1]; 10000 nM) [%] | cell viability (HepG2 [2]; 1 nM) [%] | cell viability (HepG2 [2]; 10 nM) [%] | cell viability (HepG2 [2]; 100 nM) [%] | cell viability (HepG2 [2]; 1000 nM) [%] | cell viability (HepG2 [2]; 10000 nM) [%] | cell viability (Caco-2 [3]; 1 nM) [%] | cell viability (Caco-2 [3]; 10 nM) [%] | cell viability (Caco-2 [3]; 100 nM) [%] | cell viability (Caco-2 [3]; 1000 nM) [%] | cell viability (Caco-2 [3]; 10000 nM) [%] | cell viability (Vero E6 [4]; 1 nM) [%] | cell viability (Vero E6 [4]; 10 nM) [%] | cell viability (Vero E6 [4]; 100 nM) [%] | cell viability (Vero E6 [4]; 1000 nM) [%] | cell viability (Vero E6 [4]; 10000 nM) [%] | cell viability (Calu-3 [5]; 1 nM) [%] | cell viability (Calu-3 [5]; 10 nM) [%] | cell viability (Calu-3 [5]; 100 nM) [%] | cell viability (Calu-3 [5]; 1000 nM) [%] | cell viability (Calu-3 [5]; 10000 nM) [%] | relative viability EC50 (U2OS [6]) [µM] | relative viability EC50 (HepG2 [7]) [µM] | relative viability EC50 (Caco-2 [8]) [µM] | relative viability EC50 (Vero E6 [9]) [µM] | relative viability EC50 (Calu-3 [10]) [µM] | drug sensitivity score (U2OS [11]) | drug sensitivity score (HepG2 [12]) | drug sensitivity score (Caco-2 [13]) | drug sensitivity score (Vero E6 [14]) | drug sensitivity score (Calu-3 [15])
CCCn1c(=O)c(C)cn2nc(N)nc12 | 100 | 97.3 | 104 | 98.9 | 101 | 96.9 | 95 | 93.8 | 98.3 | 107 | 91.7 | 91.5 | 102 | 99.5 | 112 | 90.1 | 103 | 96 | 97.1 | 97.7 | 105 | 102 | 102 | 111 | 99 | > 10 | > 10 | > 10 | > 10 | > 10 | 0 | 0 | 0 | 0 | 0
CCC(c1ccccc1)c1c(O)c2ccccc2oc1=O (stereo not given) [phenprocoumon] | 96.8 | 92.5 | 101 | 99.8 | 104 | 90.2 | 107 | 87.5 | 99.7 | 108 | 91.4 | 97.6 | 104 | 92.2 | 104 | 100 | 108 | 97.3 | 102 | 102 | 102 | 100 | 102 | 93.6 | 94.8 | > 10 | > 10 | > 10 | > 10 | > 10 | 0 | 0 | 0 | 0 | 0
Cc1ccc(-c2ncc(Cl)cc2-c2ccc(S(C)(=O)=O)cc2)cn1 [etoricoxib] | 98.1 | 103 | 97.2 | 98.5 | 94.2 | 101 | 90.5 | 99.5 | 104 | 98.6 | 95.3 | 108 | 92.5 | 99.9 | 104 | 96.4 | 101 | 96.5 | 99.2 | 94 | 94.7 | 99 | 90 | 104 | 101 | > 10 | > 10 | > 10 | > 10 | > 10 | 0 | 0 | 0 | 0 | 0
CCC[C@@H]1CC(=O)N([C@@H](CC)C(N)=O)C1 [Brivaracetam] | 102 | 98 | 102 | 96.2 | 99.6 | 101 | 96.2 | 101 | 97.9 | 114 | 89.1 | 94.5 | 93.8 | 102 | 98.8 | 89.6 | 96.2 | 88.3 | 97.5 | 107 | 100 | 103 | 92.7 | 100 | 97.2 | > 10 | > 10 | > 10 | > 10 | > 10 | 0 | 0 | 0 | 0 | 0
O=C1Cc2c([nH]c3ccc(Br)cc23)-c2ncccc2N1 [1-azakenpaullone] | 99.8 | 95.9 | 99.3 | 98.4 | 96.1 | 89.6 | 96.3 | 92.8 | 104 | 105 | 98.1 | 99.7 | 95.4 | 109 | 104 | 91.7 | 103 | 96.5 | 101 | 105 | 102 | 94.6 | 101 | 104 | 118 | > 10 | > 10 | > 10 | > 10 | > 10 | 0 | 0 | 0 | 0 | 0
Cc1ccc2c(c1)[C@H]1CN(C)CC[C@H]1N2 [stobadine] | 100 | 98.7 | 101 | 99.6 | 101 | 107 | 110 | 97.2 | 97.4 | 95.8 | 96.5 | 91.9 | 92.2 | 96 | 95.8 | 101 | 102 | 99.7 | 103 | 94.1 | 97.2 | 116 | 93 | 94.5 | 102 | > 10 | > 10 | > 10 | > 10 | > 10 | 0 | 0 | 0 | 0 | 0
CC(C)[C@H](O)C(=O)N[C@@H](C)C(=O)N[C@@H]1C(=O)N(C)CCc2ccccc21 [semagacestat] | 99.9 | 100 | 94 | 96.8 | 92.3 | 99.7 | 105 | 114 | 96.3 | 92.1 | 96.2 | 107 | 98.2 | 102 | 92.6 | 102 | 101 | 99.9 | 100 | 99.4 | 95.8 | 94.8 | 94.7 | 99.8 | 98.1 | > 10 | > 10 | > 10 | > 10 | > 10 | 0 | 0 | 0 | 0 | 0
